Reference: patent US10233201B2, “Class of HDAC inhibitors expands the renal progenitor cells population and improves the rate of recovery from acute kidney injury” (University of Pittsburgh—Of the Commonwealth System of …, priority 2012, dated 2019)
“And” between values parts separate entries of the source, which are not always exact repeats. Equal entries are not always repeated. Where two headings read alike, the source gives them in different places.

Experiments:
[1] = system: renal progenitor cells (lhx1a expression); experiment: In situ hybridization for lhx1a expression in 10-somite embryos (renal progenitor cell expansion); format: in vivo; details: for embryos with expanded lhx1a expression (% expansion) / lhx1a expansion class, 3 μM: 3 μM from 2 hpf, 10-somite embryos; for lhx1a expansion class, 800 nM: 800 nM from 2 hpf; for lhx1a expansion class, 200 nM: 200 nM from 2 hpf; for lhx1a expansion class, 400 nM: 400 nM from 2 hpf; for Expansion of Cells, 200 nM / Expansion of Cells, 800 nM / Expansion of Cells, 1.5 μM / Expansion of Cells, 400 nM: lhx1a in situ hybridization, includes repeats* and recounts
Procedure: (§1) PTBA was synthesized as described below. Hydroxyurea and aphidicolin were obtained from Sigma-Aldrich.
(§2) In situ hybridization and immunocytochemistry: In situ hybridization was performed as previously described with some modifications. 142 Hybridization temperature was 65° C. Embryos were blocked in 2% blocking reagent (Roche) with 5% sheep serum in MAB (100 mM maleic acid and 150 mM NaCl [pH 7.5]). Whole-mount immunocytochemistry with 1:25 mouse anti-α6F antibody (Developmental Studies Hybridoma Bank) and 1:100 Cy3 secondary antibody (Jackson ImmunoResearch) was performed as described previously. 108 Embryos were embedded in JB-4 for sectioning per the manufacturer's instructions (Polysciences), sectioned at 5 μm, and mounted with Cytoseal 60 (Richard-Allan Scientific).
The remaining PTBA analogs were synthesized.
In situ hybridization for lhx1a was performed as described above. […] Compounds were classified as effective, partially-effective or ineffective based on comparison to the effects of PTBA at a given concentration.
Testing of the compounds is on-going, but for those tested, Table 3 provides first pass EC50s based upon colormetric in situ hybridizations for the Lhx1a mRNA expression levels. After the procedure is run, in situ hybridization is done for the lhx1 mRNA expression and the number of embryos that show an expanded kidney field is manually counted to establish the percent of embryos showing expansion. Then the EC50 is determined by plotting the percent expansion in Excel, graphing the results and using the trendline function to determine the 50 percent point. […] For UPHD-00186, the 4 values for EC50 are shown in Table 3 for the corresponding expression in zebrafish embryos employed an artificial intelligence-based image analysis method termed cognition network technology (CNT) for n=4.

[2] = system: zebrafish larvae; experiment: Phenotypic scoring of edema and survival in zebrafish larvae at 72 hpf; format: in vivo; details: for larval phenotype in phenotypic screen of analogs: 3 μM, 2 to 72 hpf; for phenotype in initial chemical screen: 10 μM, larvae at 72 hpf
Source text: as §1
Wild type: no visible edema or developmental delay.

[3] = system: pax2a, pax8 expression (kidney field); experiment: In situ hybridization for renal progenitor markers pax2a, pax8 / kidney field; format: in vivo, zebrafish; details: screen hits, data not shown
Procedure: as §1, §2

[4] = system: human HDACs (HeLa cell nuclear extract); experiment: Fluorescence histone deacetylation assay with HeLa cell nuclear extract; format: biochemical; details: 5 mM compound, 10 μg HeLa extract
Procedure: To evaluate this in vitro, the deacetylation of a fluorescent peptide substrate was measured in the presence of human HDACs.
In vitro HDAC activity assays were performed using a fluorescence HDAC assay kit (Active Motif) according to the manufacturer's instructions. For maintaining compound solubility at 5 mM, the final DMSO concentration in all assay wells was increased to 5%. Fluorescence was detected using an M5 Plate Reader ([…])

[5] = system: mouse models of unilateral ureteral obstruction (UUO); experiment: Unilateral ureteral obstruction (UUO); format: in vivo; details: IP days 0 to 6, kidneys harvested at day 7
Source text: The model of unilateral ureteral obstruction generates progressive renal fibrosis. Surgically created UUO can be experimentally manipulated with respect to timing, severity, and duration, while reversal of the obstruction permits the study of recovery.
FIG. 47 represents the results of the testing of compounds UPHD-00022, UPHD-00025 (PTBA), UPHD-00029, UPHD-00036, and UPHD-00186, for their efficacy in mouse models of unilateral ureteral obstruction (UUO) as follows: in the UUO models, one ureter was ligated for 7 days and compounds were delivered via IP for days 0 to 6. At day 7 kidneys were harvested for Sirius red staining. […] Therefore, in the models tested, the only compound proven to be effective in all models and with significant delayed onset of treatment is UPHD-186.

[6] = Danio rerio, 800 nM, read-out: embryos with expanded lhx1a expression (% expansion)
[7] = Danio rerio, 400 nM, read-out: embryos with expanded lhx1a expression (% expansion)

2-amino-PTBA [Compound 2-amino-PTBA, reference compound]
embryos with expanded lhx1a expression (% expansion) [1]: no expansion

O=C(O)c1cccc(Sc2ccccc2)c1 [3-(phenylthio)benzoic acid, reference compound]
embryos with expanded lhx1a expression (% expansion) [1]: no expansion

O=C(O)CCCSc1ccc2ccccc2c1 [4-(naphthalen-2-ylthio)butanoic acid, reference compound]
embryos with expanded lhx1a expression (% expansion) ([1]; listed as 4-(napthalen-2-ylthio)butanoic acid): no expansion

O=C(CCCSc1ccc(Cl)cc1)NO [4-[(4-chlorophenyl)thio]-N-hydroxybutanamide]
lhx1a expansion class, 800 nM [1]: +/−

O=C(O)CCCCc1ccccc1 [5-phenylpentanoic acid, reference compound]
embryos with expanded lhx1a expression (% expansion) [1]: no expansion

Cn1cc(C(=O)Cc2ccccc2)cc1/C=C/C(=O)NO [APHA compound 8, reference compound]
lhx1a expansion class, 3 μM [1]: −

Nc1ccccc1NC(=O)c1ccc(CNC(=O)OCc2cccnc2)cc1 [MS-275, reference compound]
larval phenotype in phenotypic screen of analogs [2]: showed no effect on zebrafish embryos | lhx1a expansion class, 3 μM [1]: −

O=C(CCCSc1ccccc1)NO [N-hydroxy-4-(phenylthio)butanamide]
lhx1a expansion class, 800 nM [1]: +/−

Cc1ccc(SCCCC(=O)NO)cc1 [N-hydroxy-4-[(4-methylphenyl)thio]butanamide]
lhx1a expansion class, 200 nM [1]: − | lhx1a expansion class, 400 nM [1]: − | lhx1a expansion class, 800 nM [1]: + | responders at 0.8 µM [1, 6]: 61%

N=C(N)SCc1ccc(Cl)cc1Cl.O=[N+]([O-])c1c(O)c(Cl)cc(Cl)c1Cl [NSC35400]
phenotype in initial chemical screen [2]: generated pericardial edema | effect on size of the kidney field / renal markers (in situ hybridization) [3]: did not affect the size of the kidney field

COc1ccc(/C=C(\C#N)C(N)=O)c(OC)c1 [NSC134664]
phenotype in initial chemical screen [2]: generated pericardial edema | effect on size of the kidney field / renal markers (in situ hybridization) [3]: did not affect the size of the kidney field

N=C(N)c1ccc(N=Nc2c(O)ccc3c2[nH]c2ccccc23)cc1 [NSC357777]
phenotype in initial chemical screen [2]: generated pericardial edema | effect on size of the kidney field / renal markers (in situ hybridization) [3]: did not affect the size of the kidney field

O=C(O)CCCS(=O)(=O)c1ccccc1 [PSOBA, 4-(phenylsulfonyl)butanoic acid, reference compound]
embryos with expanded lhx1a expression (% expansion) [1]: no ability to expand renal progenitor cells | HDAC activity, % of the control value [4]: 70%

O=C(CCCCCCC(=O)Nc1ccccc1)NO [SAHA, reference compound]
larval phenotype in phenotypic screen of analogs [2]: showed no effect on zebrafish embryos | lhx1a expansion class, 3 μM [1]: −

O=C(CCCSc1ccc(F)cc1)NO [UPHD-00029, 4-[(4-fluorophenyl)sulfanyl]-N-hydroxybutanamide]
lhx1a expansion class, 200 nM [1]: − | lhx1a expansion class, 400 nM [1]: +/− | lhx1a expansion class, 800 nM [1]: + | responders at 0.4 µM [1, 7]: 35% | responders at 0.8 µM [1, 6]: 60% | Expansion of Cells, 200 nM [1]: 6.25% | Expansion of Cells, 800 nM [1]: 60% and 33% | Expansion of Cells, 1.5 μM [1]: 82.4% | fibrosis (Sirius red) and expression of fibrosis markers in UUO kidney [5]: reduce both fibrosis and expression of fibrosis markers

Nc1ccccc1NC(=O)CCCSc1ccccc1 [UPHD-00036, N-(2-aminophenyl)-4-(phenylsulfanyl)butanamide]
fibrosis (Sirius red) and expression of fibrosis markers in UUO kidney [5]: reduce both fibrosis and expression of fibrosis markers

O=C(CCCCCSc1ccccc1)Nc1ccccc1O [UPHD-00187, N-(2-hydroxyphenyl)-6-(phenylsulfanyl) hexanamide]
Expansion of Cells, 400 nM [1]: 58% | Expansion of Cells, 800 nM [1]: 52% | Expansion of Cells, 1.5 μM [1]: 52%

Nc1ccccc1NC(=O)CCCCSCc1ccccc1 [UPHD-00188, N-(2-aminophenyl)-5-(benzysulfanyl) pentanamide]
Expansion of Cells, 800 nM [1]: 0% | Expansion of Cells, 1.5 μM [1]: 0%

Nc1ccccc1NC(=O)CCCSCCc1ccccc1 [UPHD-00190, N-(2-aminophenyl)-4-[(2-phenylethyl)sulfanyl]butanamide]
expansion ([1]; 0.055 μM): 72% | Expansion of Cells, 200 nM [1]: 50% | Expansion of Cells, 400 nM [1]: 0% | Expansion of Cells, 800 nM [1]: 0% | Expansion of Cells, 1.5 μM [1]: 0%

CCC(=O)CCCCC[C@@H]1NC(=O)[C@H]2CCCCN2C(=O)[C@H]([C@@H](C)CC)NC(=O)[C@H](Cc2cn(OC)c3ccccc23)NC1=O [apicidin, reference compound]
lhx1a expansion class, 200 nM [1]: − | lhx1a expansion class, 400 nM [1]: +/− | lhx1a expansion class, 800 nM [1]: XX^1 | embryos surviving treatment ([1]; 800 nM, n=36): 31% | treated embryos killed ([1]; 800 nM, n=36): 69% | lethality before the 10-somite stage ([1]; 1.5 μM): lethal | lethality before the 10-somite stage ([1]; 3 μM): killed all treated embryos | responders at 0.4 µM ([1]; Danio rerio, read-out: embryos with expanded lhx1a expression (% expansion), 400 nM): 22%

CCC(C)OC(=O)CCCSc1ccccc1 (stereo not shown) [butan-2-yl 4-(phenylthio)butanoate]
lhx1a expansion class, 800 nM [1]: +/−

COC(=O)CCCSc1ccc(F)cc1 [methyl 4-[(4-fluorophenyl)thio]butanoate]
lhx1a expansion class, 200 nM [1]: +/− | lhx1a expansion class, 400 nM [1]: +/− | lhx1a expansion class, 800 nM [1]: + | lethality before the 10-somite stage ([1]; 3 μM): killed all treated embryos | responders at 0.2 µM ([1]; Danio rerio, 200 nM, read-out: embryos with expanded lhx1a expression (% expansion)): 22% | responders at 0.4 µM [1, 7]: 26% | responders at 0.8 µM [1, 6]: 64%

COC(=O)CCCSc1ccc(C)cc1 [methyl 4-[(4-methylphenyl)thio]butanoate]
lhx1a expansion class, 200 nM [1]: − | lhx1a expansion class, 400 nM [1]: − | lhx1a expansion class, 800 nM [1]: + | responders at 0.8 µM [1, 6]: 49%

CCCOC(=O)CCCSc1ccccc1 [propyl 4-(phenylthio)butanoate]
lhx1a expansion class, 800 nM [1]: +/−

CC(C)(C)OC(=O)CCCSc1ccccc1 [tert-butyl 4-(phenylthio)butanoate]
larval phenotype in phenotypic screen of analogs [2]: did not cause a statistically-significant decrease in the number of wild-type larval phenotypes

O=C(CCCCCCC(=O)Nc1ccc([C@H]2O[C@@H](CSc3nc(-c4ccccc4)c(-c4ccccc4)o3)C[C@@H](c3ccc(CO)cc3)O2)cc1)NO [tubacin]
larval phenotype in phenotypic screen of analogs [2]: appeared wild-type

CCCC(CCC)C(=O)O [valproic acid]
larval phenotype in phenotypic screen of analogs [2]: generated edemic and/or lethal phenotypes
